From patent publication US20080166427A1, “Method for Reducing Gastrointestinal Toxicity Due to the Administration of Tegafur” (Taiho Pharmaceutical Co., Ltd, priority 2004, published 2008)

Key:
clinical = type: in vivo, human
Procedure: The patient's diagnosis were CRC (7), breast (3), gastric (3) and other (4).
A total of 17 patients were entered in this pharmacokinetic study after informed consent.
Blood was sampled during 24 hours. […] Blood samples were taken by venipuncture in heparinized tubes of 9 ml and transported on ice for immediate processing.
Blood samples were centrifuged for 5 min at 4000 rpm and 4° C. The plasma was transferred to 2 eppendorf vials of 2 ml and stored at −20° C.
Analysis for tegafur and cyanuric acid was performed by validated HPLC assays, while the analysis of the other compounds was performed after derivatization by validated gas-chromatography-mass spectrometry methods as described previously [Peters G. J., Noordhuis P., Van Kuilenburg A. B. P., Schornagel J. H., Gall H., Turner S. L., Swart M. S., Voorn D., Van Gennip A. H., Wanders J., Holwerda U., Smid K., Giaccone G., Fumoleau P. and Van Groeningen C. […] Cancer Chemother. Pharmacol., 38: 1-12, 2003.].
The pharmacokinetic parameters for tegafur, 5FU, oxonic acid, cyan uric acid, and CDHP were calculated with the computer program WinNonLin (version 1.5). The data were analyzed using non-compartment modeling. The parameters that could be established were: time point of maximum observed concentration in plasma (Tmax), concentration in plasma corresponding to Tmax (Cmax), terminal half-life (t½), area under the plasma concentration versus time (C-t) curve (AUCall).

[1] = target: T1, dihydropyrimidine dehydrogenase (DPD) (Homo sapiens, UniProt Q12882); assay: Inhibition of dihydropyrimidine dehydrogenase; type: biochemical; settings: vs uracil
T1 sequence (Q12882 4-1025): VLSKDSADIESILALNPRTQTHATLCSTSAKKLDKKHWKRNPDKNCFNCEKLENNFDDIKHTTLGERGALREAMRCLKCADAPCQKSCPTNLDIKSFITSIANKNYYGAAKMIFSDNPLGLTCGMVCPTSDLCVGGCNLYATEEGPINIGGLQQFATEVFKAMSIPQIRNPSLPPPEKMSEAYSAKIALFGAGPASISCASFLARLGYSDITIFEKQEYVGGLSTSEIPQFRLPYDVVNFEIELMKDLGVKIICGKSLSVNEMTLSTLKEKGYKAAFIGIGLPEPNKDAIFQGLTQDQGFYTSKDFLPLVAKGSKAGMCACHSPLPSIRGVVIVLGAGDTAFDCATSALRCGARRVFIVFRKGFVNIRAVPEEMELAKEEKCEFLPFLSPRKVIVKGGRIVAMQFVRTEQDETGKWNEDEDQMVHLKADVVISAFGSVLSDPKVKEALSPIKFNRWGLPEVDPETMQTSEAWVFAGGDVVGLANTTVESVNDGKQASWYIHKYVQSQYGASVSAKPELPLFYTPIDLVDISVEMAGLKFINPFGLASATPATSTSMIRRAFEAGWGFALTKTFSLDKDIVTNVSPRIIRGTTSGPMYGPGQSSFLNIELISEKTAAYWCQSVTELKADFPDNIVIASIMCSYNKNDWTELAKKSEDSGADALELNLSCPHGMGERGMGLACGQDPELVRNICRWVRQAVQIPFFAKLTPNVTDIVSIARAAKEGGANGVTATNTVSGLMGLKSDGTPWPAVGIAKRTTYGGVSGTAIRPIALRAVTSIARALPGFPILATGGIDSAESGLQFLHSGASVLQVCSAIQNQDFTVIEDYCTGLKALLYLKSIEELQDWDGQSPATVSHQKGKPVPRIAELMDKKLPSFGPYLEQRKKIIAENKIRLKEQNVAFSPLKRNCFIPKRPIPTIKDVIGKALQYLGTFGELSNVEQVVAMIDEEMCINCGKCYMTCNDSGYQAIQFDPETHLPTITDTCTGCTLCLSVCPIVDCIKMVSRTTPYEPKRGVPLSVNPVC
Text: It is gradually converted to 5-FU in vivo. • CDHP inhibits the catabolism of 5-FU by reversibly inhibiting the enzyme of dihydropyrimidine dehydrogenase (DPD). […] CDHP helps maintain effective blood and tumor concentrations of 5-FU for a prolonged period thus potentially achieving a similar therapeutic effect as protracted infusion of 5-FU. • Oxo blocks phosphorylation of 5-FU by orotate phosphoribosyltransferase (OPRT) in the gastrointestinal tract. […] Oxo is acid labile and thus its bioavailability is affected by food intake.

advanced gastric cancer = settings: in vivo
[2] = human, in vivo, po, 35 mg/m2, AUCall
[3] = human, in vivo, po, 35 mg/m2, Cmax
[4] = human, in vivo, po, 35 mg/m2, t½
[5] = human, in vivo, po, 35 mg/m2, Tmax
[6] = comparison fasting vs feeding group, S-1 35 mg/m^2

| AUC (clinical; [2]) | Cmax (clinical; [3]) | half-life (clinical; [4]) | Tmax, without breakfast vs after breakfast (clinical; in vivo) | t½, fasting vs feeding group (clinical; in vivo) | Tmax (clinical; [5]) | SMILES | further results |
| --- | --- | --- | --- | --- | --- | --- | --- |
| 15700 ng·h/mL | 2370 ng/mL | 8.6 h | earlier without breakfast | no significant difference |  | O=c1[nH]c(=O)n(C2CCCO2)cc1F (racemic) [FT, 5-Fluoro-1-[(RS)-tetrahydrofuran-2-yl]pyrimidine-2,4-(1H,3H)-dione, reference compound] | Tmax (clinical; human, in vivo, po, 35 mg/m2): 0.6 h |
| 1100 ng·h/mL | 210 ng/mL | 2.2 h | reached earlier without breakfast | no significant difference | 1.8 h | O=c1[nH]cc(F)c(=O)[nH]1 [5-FU, 5-fluorouracil, reference compound] |  |
|  |  | 3.9 h | significantly faster without breakfast | not significantly different | 1.6 h | O=C(O)c1nc(=O)[nH]c(=O)[nH]1 [Oxo, potassium oxonate] | effect of food on bioavailability (clinical; human, in vivo, po): profound effect; AUCall (clinical; human, in vivo, po, 35 mg/m2): 808.7 ng·h/mL; Cmax (clinical; human, in vivo, po, 35 mg/m2): 158.1 ng/mL |

The next lines start with the molecule.

| SMILES | AUC (clinical; [2]) | Cmax (clinical; [3]) | half-life (clinical; [4]) | Tmax, without breakfast vs after breakfast (clinical; in vivo) | t½, fasting vs feeding group (clinical; in vivo) | Tmax (clinical; [5]) | further results |
| --- | --- | --- | --- | --- | --- | --- | --- |
| O=c1[nH]c(=O)[nH]c(=O)[nH]1 [CA, cyanuric acid] |  |  |  |  |  |  | AUCall, fasting vs feeding group (clinical; [6]): higher values in the feeding group as compared to the fasting group; Cmax, fasting vs feeding group (clinical; [6]): not significantly different; Tmax, without breakfast vs after breakfast (clinical; [6]): faster Tmax without breakfast; t½, fasting vs feeding group (clinical; [6]): not significantly different; AUC (clinical; human, in vivo, po, 35 mg/m2, plasma, mean, S-1 35 mg/m^2 oral, fasted patients, read-out: AUCall): 517 ng·h/mL; Cmax (clinical; human, in vivo, po, 35 mg/m2, plasma, mean, S-1 35 mg/m^2 oral, fasted patients, read-out: Cmax): 118 ng/mL; Tmax (clinical; human, in vivo, po, 35 mg/m2, plasma, mean, S-1 35 mg/m^2 oral, fasted patients, read-out: Tmax): 1.3 h; half-life (clinical; human, in vivo, po, 35 mg/m2, plasma, mean, S-1 35 mg/m^2 oral, fasted patients, read-out: t½ (converted)): 5.3 h; AUC (clinical; human, in vivo, po, 35 mg/m2, plasma, mean, S-1 35 mg/m^2 oral, fed patients, read-out: AUCall): 1220 ng·h/mL; Cmax (clinical; human, in vivo, po, 35 mg/m2, plasma, mean, S-1 35 mg/m^2 oral, fed patients, read-out: Cmax): 160 ng/mL; Tmax (clinical; human, in vivo, po, 35 mg/m2, plasma, mean, S-1 35 mg/m^2 oral, fed patients, read-out: Tmax): 3.5 h; half-life (clinical; human, in vivo, po, 35 mg/m2, plasma, mean, S-1 35 mg/m^2 oral, fed patients, read-out: t½ (converted)): 6.7 h |
| Oc1cc(O)c(Cl)cn1 [CDHP, 5-chloro-2,4-dihydroxypyridine] | 1920 ng·h/mL | 464 ng/mL | 4.5 h | reached earlier without breakfast | no significant difference | 1.1 h | potency of DPD inhibition relative to uracil [1]: 180 fold |
| N.N.[Cl][Pt][Cl] [cisplatin] |  |  |  |  |  |  | recommended dose for the phase II portion (advanced gastric cancer): 60 mg/m^2 |
